Read-outs that look alike come from different tables or passages of the source.

The values that follow come from patent publication US6632816B1, “Aromatic derivatives as HIV aspartyl protease inhibitors” (Pharmacor Inc., priority 2002, dated 2003).

Assay [1] relates to HIV-1 laboratory viral strain NL4.3 (wild type virus). Nature of the assay: Anti-viral assay in vitro (MTT, infected MT-4 cells). It is filed as cell-based. The following applies: MT-4 cells infected with NL4.3, six days, MTT assay, read-out: EC50. As for the experimental part: Anti-viral and Cytotoxicity Assays In Vitro
To evaluate the EC50 of our compounds, various drug concentrations are incubated with the infected cell for six days and then the metabolic activity of the cells is monitored by the MTT assay. (See A. J. Japour et al, Antimicrobial Agents and Chemotherapy, 37, 1095-1101, 1993 and R. Pauwels et al. Journal of Virological Methods, 20, 309-321, 1988)
We use the laboratory viral strain NL4.3 as wild type virus and the cell line used is MT-4 which is a T-cell line highly sensitive to HIV-1. We also use some WT clinical strains. To address the resistance issue we assay the inhibitors with NL4.3 mutants which are designed to be resistant to specific commercially,available inhibitors

The target in assay [2] is T1, HIV protease (Human immunodeficiency virus type 1 group M subtype B, UniProt P04585). To be noted: FRET assay, Henderson equation.
The target in assay [3] is T1, HIV protease. Kind of assay: biochemical.
The mark [4] stands for this setting: Human immunodeficiency virus 1, MT4, 144 h.

Regarding `COC(=O)N[C@@H](Cc1ccccc1-c1ccccc1)C(=O)NCCCCC(CO)N(CC(C)C)S(=O)(=O)c1ccc(N)cc1` (stereo partly drawn) [Example 30, (1S,5R,S)-(1-{5-[(4-Amino-benzenesulfonyl)-isobutyl-amino]-6-hydroxy-hexylcarbamoyl}-2-biphenyl-2-yl-ethyl)-carbamic Acid Methyl Ester], the EC50 in assay [1] is 344 nM. The inhibition constant (Ki) on HIV protease [2] came out at 1.4 nM.

With `CC(C)CN([C@H](CO)CCCCNC(=O)[C@H](Cc1ccc2ccccc2c1)NC(=O)c1ccncc1)S(=O)(=O)c1ccc(N)cc1` [Example 55, (1S,5S)-N-(1-{5-[(4-Amino-benzenesulfonyl)-isobutyl-amino]-6-hydroxy-hexylcarbamoyl}-2-naphthalen-2-yl-ethyl)-isonicotinamide], the EC50 in assay [1] (setting [4]) was determined as 110 nM. The affinity at HIV protease [3], expressed as Ki, was 1.3 nM.

In the case of `COC(=O)N[C@@H](Cc1ccccc1-c1cccc(F)c1)C(=O)NCCCC[C@@H](CO)N(CC(C)C)S(=O)(=O)c1ccc(F)c(N)c1` [Example 56, (1S,5S)-[1-{5-[(3-Amino-4-fluoro-benzenesulfonyl)-isobutyl-amino]-6-hydroxy-hexylcarbamoyl}-2-(3′-fluoro-biphenyl-2-yl)-ethyl]-carbamic Acid Methyl Ester], the EC50 in assay [1] (setting [4]) was found to be 300 nM. Moreover, at HIV protease [3], the affinity, expressed as Ki, was 1.3 nM.

As for `COC(=O)N[C@H](C(=O)NCCCC[C@@H](CO)N(CC(C)C)S(=O)(=O)c1ccc(F)c(N)c1)C(c1ccccc1)c1ccccc1` [Example 58, (1S,5S)-(1-{5-[(3-Amino-4-fluoro-benzenesulfonyl)-isobutyl-amino]-6-hydroxy-hexylcarbamoyl}-2,2-diphenyl-ethyl)-carbamic Acid Methyl Ester], in assay [1] (setting [4]), the EC50 was 25 nM. Also, the affinity on HIV protease [3] corresponds to a Ki of 0.65 nM.

Consider `CC(C)CN([C@H](CO)CCCCNC(=O)[C@H](Cc1ccc2ccccc2c1)NC(=O)c1cnccn1)S(=O)(=O)c1ccc(N)cc1` [Example 62, (1S,5S)-Pyrazine-2-carboxylic Acid (1-{5-[(4-Amino-benzenesulfonyl)-isobutyl-amino]-6-hydroxy-hexylcarbamoyl}-2-naphthalen-2-yl-ethyl)-amide], for which the EC50 in assay [1] (setting [4]) came to 361 nM. The same compound yielded a Ki on HIV protease [3] of 2.1 nM.

Turning to `CC(C)CN([C@H](CO)CCCCNC(=O)[C@H](Cc1cccc2ccccc12)NC(=O)N1CCOCC1)S(=O)(=O)c1ccc2c(c1)OCO2` [Example 66, (1S,5S)-Morpholine-4-carboxylic Acid (1-{5-[(Benzo[1,3]dioxole-5-sulfonyl)-isobutyl-amino]-6-hydroxy-hexylcarbamoyl}-2-naphthalen-1-yl-ethyl)-amide], the concentration for a half-maximal effect (EC50) in assay [1] (setting [4]) came to 409 nM. At HIV protease [3], this compound returned a Ki of 1.1 nM.

For `CC(=O)N[C@H](C(=O)NCCCC[C@@H](CO)N(CC(C)C)S(=O)(=O)c1ccc(N)cc1)C(c1ccccc1)c1ccccc1` [Example 71, (2S,5S)-2-Acetylamino-N-{5-[(4-amino-benzenesulfonyl)-isobutyl-amino]-6-hydroxy-hexyl}-3,3-diphenyl-propionamide], the 50% effective concentration (EC50) in assay [1] (setting [4]) was determined as 66 nM. The Ki on HIV protease [3] worked out at 1.5 nM.

Regarding `CC(C)CN([C@H](CO)CCCCNC(=O)[C@@H](NC(=O)c1cccnc1)C(c1ccccc1)c1ccccc1)S(=O)(=O)c1ccc(N)cc1` [Example 73, (1S,5S)-N-(1-{5-[(4-Amino-benzenesulfonyl)-isobutyl-amino]-6-hydroxy-hexylcarbamoyl}-2,2-diphenyl-ethyl)-nicotinamide], the 50% effective concentration (EC50) in assay [1] (setting [4]) amounted to 39 nM. At HIV protease [3], this compound displayed a Ki of 0.681 nM.

As for `CC(C)CN([C@H](CO)CCCCNC(=O)[C@@H](NC(=O)c1ccncc1)C(c1ccccc1)c1ccccc1)S(=O)(=O)c1ccc(N)cc1` [Example 74, (1S,5S)-N-(1-{5-[(4-Amino-benzenesulfonyl)-isobutyl-amino]-6-hydroxy-hexylcarbamoyl}-2,2-diphenyl-ethyl)-isonicotinamide], in assay [1] (setting [4]), the concentration giving a half-maximal response (EC50) came out at 32 nM. This compound displayed an inhibition constant (Ki) on HIV protease [3] of 0.647 nM.

Take `CC(C)CN([C@H](CO)CCCCNC(=O)[C@@H](NC(=O)C1CC1)C(c1ccccc1)c1ccccc1)S(=O)(=O)c1ccc(N)cc1` [Example 75, (1S,5S)-Cyclopropanecarboxylic Acid (1-{5-[(4-Amino-benzenesulfonyl)-isobutyl-amino]-6-hydroxy-hexylcarbamoyl}-2,2-diphenyl-ethyl)-amide]: the concentration for a half-maximal effect (EC50) in assay [1] (setting [4]) came to 25 nM. Moreover, the Ki on HIV protease [3] was under 3.8 nM.

As for `CC(C)CN([C@H](CO)CCCCNC(=O)[C@@H](NC(=O)C1CCCCC1)C(c1ccccc1)c1ccccc1)S(=O)(=O)c1ccc(N)cc1` [Example 76, (1S,5S)-Cyclohexanecarboxylic Acid (1-{5-[(4-Amino-benzenesulfonyl)-isobutyl-amino]-6-hydroxy-hexylcarbamoyl}-2,2-diphenyl-ethyl)-amide], the EC50 in assay [1] (setting [4]) was determined as 93 nM. In addition, the Ki at HIV protease [3] was under 3.8 nM.

`CC(C)CN(C(CO)CCCCNC(=O)C(NC(=O)C1CCOC1)C(c1ccccc1)c1ccccc1)S(=O)(=O)c1ccc(N)cc1` [Example 77, (1S,3R,S,5S)-Tetrahydro-furan-3-carboxylic Acid (1-{5-[(4-Amino-benzenesulfonyl)-isobutyl-amino]-6-hydroxy-hexylcarbamoyl}-2,2-diphenyl-ethyl)-amide]: the half-maximal effective concentration (EC50) in assay [1] (setting [4]) worked out at 68 nM. In addition, the inhibition constant Ki on HIV protease [3] stood at 0.581 nM.

As to `COC(=O)N[C@H](C(=O)NCCCC[C@@H](CO)N(CC(C)C)S(=O)(=O)c1ccc(F)cc1)C(c1ccccc1)c1ccccc1` [Example 78, (1S,5S)-(1-{5-[(4-Fluoro-benzenesulfonyl)-isobutyl-amino]-6-hydroxy-hexylcarbamoyl}-2,2-diphenyl-ethyl)-carbamic Acid Methyl Ester], in assay [1] (setting [4]), the half-maximal effective concentration (EC50) is 94 nM. The inhibition constant (Ki) at HIV protease [3] is under 3.8 nM.

For `COC(=O)N[C@H](C(=O)NCCCC[C@@H](CO)N(CC(C)C)S(=O)(=O)c1ccc(C#N)cc1)C(c1ccccc1)c1ccccc1` [Example 79], the half-maximal effective concentration (EC50) in assay [1] (setting [4]) stood at 65 nM. Further, at HIV protease [3], the Ki was under 3.8 nM.

Take `COC(=O)N[C@H](C(=O)NCCCC[C@@H](CO)N(CC(C)C)S(=O)(=O)c1ccc(F)cc1F)C(c1ccccc1)c1ccccc1` [Example 80, (1S,5S)-(1-{5-[(2,4-Difluoro-benzenesulfonyl)-isobutyl-amino]-6-hydroxy-hexylcarbamoyl}-2,2-diphenyl-ethyl)-carbamic Acid Methyl Ester]: the concentration giving a half-maximal response (EC50) in assay [1] (setting [4]) amounted to 48 nM. Also, the Ki on HIV protease [3] was under 3.8 nM.
